From article PMC5602078, “Rapid screening and identification of ACE inhibitors in snake venoms using at-line nanofractionation LC-MS” (Analytical and Bioanalytical Chemistry, 2017) come the findings set out here.

In assay [1] the target is T1, angiotensin-converting enzyme (ACE) from rabbit lung (Oryctolagus cuniculus, UniProt P12822).
T1 sequence (P12822 34-1310): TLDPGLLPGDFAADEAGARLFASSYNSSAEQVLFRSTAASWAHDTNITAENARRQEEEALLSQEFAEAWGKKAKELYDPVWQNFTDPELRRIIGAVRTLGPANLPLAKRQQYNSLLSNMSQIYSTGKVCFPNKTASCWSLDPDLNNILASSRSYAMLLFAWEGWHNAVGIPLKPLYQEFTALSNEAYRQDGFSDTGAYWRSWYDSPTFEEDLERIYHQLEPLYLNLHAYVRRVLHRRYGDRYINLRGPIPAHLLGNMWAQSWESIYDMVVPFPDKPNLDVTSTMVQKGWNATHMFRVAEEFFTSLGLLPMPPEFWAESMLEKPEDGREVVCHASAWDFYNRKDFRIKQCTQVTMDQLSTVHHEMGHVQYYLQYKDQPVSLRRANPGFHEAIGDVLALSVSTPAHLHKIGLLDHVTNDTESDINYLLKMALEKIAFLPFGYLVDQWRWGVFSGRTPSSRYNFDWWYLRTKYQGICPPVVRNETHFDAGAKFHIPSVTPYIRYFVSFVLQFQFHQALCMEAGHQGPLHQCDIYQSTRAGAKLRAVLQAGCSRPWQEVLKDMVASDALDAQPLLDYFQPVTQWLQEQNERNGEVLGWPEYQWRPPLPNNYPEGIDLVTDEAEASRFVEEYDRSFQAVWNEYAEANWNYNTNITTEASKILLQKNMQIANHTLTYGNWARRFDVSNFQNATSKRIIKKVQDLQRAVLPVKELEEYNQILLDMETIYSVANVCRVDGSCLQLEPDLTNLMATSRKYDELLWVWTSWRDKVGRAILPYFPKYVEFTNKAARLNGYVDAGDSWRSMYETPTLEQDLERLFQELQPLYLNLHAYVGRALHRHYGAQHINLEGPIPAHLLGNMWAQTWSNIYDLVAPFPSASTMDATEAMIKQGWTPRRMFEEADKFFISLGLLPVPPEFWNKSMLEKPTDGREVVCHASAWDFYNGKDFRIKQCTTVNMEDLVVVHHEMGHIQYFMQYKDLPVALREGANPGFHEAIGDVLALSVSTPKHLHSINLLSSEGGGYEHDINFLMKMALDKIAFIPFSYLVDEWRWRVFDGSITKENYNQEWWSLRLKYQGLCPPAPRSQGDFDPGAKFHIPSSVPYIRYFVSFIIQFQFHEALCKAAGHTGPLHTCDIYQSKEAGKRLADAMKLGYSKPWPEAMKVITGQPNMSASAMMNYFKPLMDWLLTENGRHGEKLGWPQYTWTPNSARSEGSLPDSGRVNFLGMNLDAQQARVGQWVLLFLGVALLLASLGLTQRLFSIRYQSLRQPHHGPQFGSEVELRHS
The class given is biochemical. The arrangement: angiotensin-converting enzyme (ACE) from rabbit lung; purchased Sigma-Aldrich (Zwijndrecht, The Netherlands); host or cells: rabbit lung tissue. The note with it: peptide in bioactive wells after LC nanofractionation of crude venom, sequenced by nanoLC-MS/MS.
From the text: Water was purified using a Milli-Q Plus system from Millipore (Amsterdam, The Netherlands). Acetonitrile (ACN) (ULC/MS grade) and formic acid (FA) were obtained from Biosolve (Valkenswaard, The Netherlands). […] DMSO was obtained from Riedel-de Haën (Zwijndrecht, The Netherlands). Most snake venoms were obtained commercially from Kentucky Reptile Zoo (USA), Ventoxin (USA), Biotoxin (USA), Venom Supplies (Tanunda, Australia), and African Reptiles & Venoms (Johannesburg, South Africa). The Boiga irregularis and Gloydius blomhoffii venoms were kind gifts from Prof. Steve Mackessy (University of Northern Colorado, USA) and Prof. Sadaaki Iwanaga (Kyushu University, Japan), respectively. Lyophilized venoms were kept at −20 °C. Prior to analysis, snake venoms were diluted in water to an end concentration of approximately 5.0 ± 0.1 mg/mL. After analysis, the samples were kept at −80 °C for later re-analysis.
Liquid chromatography separation was performed on a Shimadzu (‘s-Hertogenbosch, The Netherlands) UPLC system controlled via the Shimadzu Lab Solutions software. Sample injection was performed with a Shimadzu SIL-30AC autosampler using a 50-μL injection volume for RPLC separation and a 20-μL injection volume for HILIC separation. A gradient separation was performed on a Waters (Milford, MA) xBridge C18 column (100 × 4.6 mm; 5 μm) with an xBridge C18 guard column (10 × 4.6 mm; 5 μm) in RPLC mode. In HILIC mode, an Atlantis™ HILIC silica column (150 × 2.1 mm; 3 μm) was used. The columns were thermostated at 37 °C in a Shimadzu CTD-30A column oven. The solvent delivery was performed with two Shimadzu LC-30AD parallel pumps with 0.6 and 0.15 mL/min total flow rates for RPLC and HILIC separation, respectively. The mobile phases consisted of eluent A (98% H2O, 2% ACN, and 0.1% FA) and eluent B (98% ACN, 2% H2O, and 0.1% FA). The setup was optimized and validated in RPLC mode using the following gradient: a linear increase from 0 to 30% B in 20 min followed by 5-min isocratic elution at 30% B and a subsequent decrease to 0% B in 1 min with a 5-min equilibration time. The snake venoms screening for ACE activity was performed both in RPLC and HILIC mode. In the RPLC mode, venoms were analyzed using a 20-min linear gradient from 0 to 50% B followed by a linear increase to 90% B in 2 min and then a 2-min isocratic elution at 90% B before going back to 0% B in 1 min. The column was then equilibrated for 5 min. In the HILIC mode, separation started at 50% B and decreased linearly to 0% B in 20 min. This was followed by 4-min column washing at 0% B and a subsequent increase to 50% B in 1 min. The column was then equilibrated for 10 min. After the column, a flow split was introduced in a 1:9 ratio. The larger flow portion was directed to a Gilson 235P autosampler for 6-s nanofractionation onto black 384-well plates (Greiner Bio One, Alphen aan den Rijn, The Netherlands). The nanofractionated plates were subsequently dried in a Christ Rotational Vacuum Concentrator (Salm en Kipp, Breukelen, The Netherlands) RVC 2−33 CD plus and then stored at −20 °C until use. Ariadne, an in-house written software, was used to control the nanofractionation. The smaller flow portion was directed towards a Shimadzu SPD-M20A prominence diode array detector followed by a Waters Ultima quadrupole–time-of-flight (q–TOF) mass spectrometer equipped with an electrospray ionization (ESI) source. […]

The target in assay [2] is T1, angiotensin-converting enzyme (ACE) from rabbit lung. The conditions noted are these: Fig. S1; for Vmax: normalized response.
Method: (§1) ACE was stored at −20 °C as a 1-U/mL solution in 50% glycerol/50% 0.15 M Tris-HCl pH 8.3 supplemented with 5 mM ZnCl2. […] The assay was performed in a 0.15 M Tris-HCl buffer pH 8.3 supplemented with 0.5 M NaCl. […] This solution was then added directly to the nanofractionated plates at room temperature using a Multidrop™ 384 Reagent Dispenser (Thermo Fisher Scientific, Ermelo, The Netherlands). The final volume of the assay was 75 μL/well. The readout of the assay was fluorescence measured with a Varioskan™ Flash Multimode Reader (Thermo Fisher Scientific, Ermelo, The Netherlands) at 320 nm excitation and 420 nm emission wavelength. The measurements were performed at 37 °C after 1 h and after 2 h from the start of addition of the assay solution to the plates. Between the two time points, the plates were incubated at 37 °C. The activity of ACE in the wells was expressed as the slope of the kinetic curve that resulted from the two time point measurements. The resulting slopes were normalized and plotted in a graph versus time of each nanofraction collected using the GraphPad Prism 6 software (La Jolla, CA, USA). The slopes were normalized by dividing each slope value with the median of all the values obtained in a single measurement.
In the presence of an ACE inhibitor, a drop in the basal fluorescence is detected.
This was done by performing enzyme kinetic experiments using different substrate and enzyme concentrations. In total, five different enzyme concentrations (2.5, 5, 10, 20, and 40 mU) were tested in the ACE bioactivity assay, at eight substrate concentrations (5–500 μM), in a matrix fashion. […] Therefore, the results excluding the highest concentration tested (500 μM) were fitted into a Michaelis-Menten enzyme kinetic model. […] The data presented was normalized for comparison reasons (ESM Fig. S1). […] However, when using sufficiently long incubation times, low enzyme concentrations will yield a sufficient assay window for obtaining good S/N, also in combination with much lower than the Km substrate concentrations. In practice, these assay conditions allowed for two measurement points at 1 and 2 h after the beginning of the incubation resulting in repeatable slope determination of the enzymatic product formation.
Assay [3] shares this target. Put plainly: ACE bioactivity assay, dose-response (concentration-response) curves of synthetic peptides. It is filed as biochemical. The arrangement: angiotensin-converting enzyme (ACE) from rabbit lung; purchased Sigma-Aldrich (Zwijndrecht, The Netherlands); host or cells: rabbit lung tissue.
Method: Water was purified using a Milli-Q Plus system from Millipore (Amsterdam, The Netherlands). Acetonitrile (ACN) (ULC/MS grade) and formic acid (FA) were obtained from Biosolve (Valkenswaard, The Netherlands). […] DMSO was obtained from Riedel-de Haën (Zwijndrecht, The Netherlands).
as §1
The dose-response curves of all four synthetic peptides were determined and the IC50 values for each peptide were determined in the ACE bioactivity assay.
The serial dilutions of the peptides were tested in the assay using 1 mU/mL ACE enzyme and
40 µM substrate concentration.

pIC50: −log10 of the molar value. Read-outs that look alike come from different tables or passages of the source. Where a SMILES comes first, the peptide text is derived from it. Where no end group is shown, it is not given here. [ ]: non-standard residue; d: D form. Phe(4-NO2) = N[C@@H](Cc1ccc([N+](=O)[O-])cc1)C(=O)O; pGlu = O=C1CC[C@@H](C(=O)O)N1; 2Abz = Nc1ccccc1C(=O)O

Take pE(I/L)WPRPHVPP: the “ACE inhibitory peptide assigned to bioactivity peak (in words)” value (“ACE inhibitory peptide assigned” below) in assay [1] is given as “major bioactive compounds”.
In the case of `Nc1ccccc1C(=O)NCC(=O)N[C@@H](Cc1ccc([N+](=O)[O-])cc1)C(=O)N1CCC[C@H]1C(=O)O` [M1100, o-Aminobenzoylglycyl-p-nitro-L-phenylalanyl-L-proline] (H-[2Abz]G[Phe(4-NO2)]P-OH), the Michaelis constant (Km) (as a rule, the concentration of substrate that gives half-maximal velocity) came to 46.8 µM in assay [2] (2.5 mU ACE); 79.4 µM in assay [2] (5 mU ACE); 56.3 µM in assay [2] (10 mU ACE); 65.9 µM in assay [2] (20 mU ACE); 65.4 µM in assay [2] (40 mU ACE). In addition, the Vmax in assay [2] (2.5 mU ACE) was 120.0; in assay [2] (5 mU ACE), 129.3; in assay [2] (10 mU ACE), 122.9; in assay [2] (20 mU ACE) it was 126.5; in assay [2] (40 mU ACE), 126.6.
`CC(C)C[C@H](NC(=O)[C@@H]1CCCN1C(=O)[C@@H]1CCCN1C(=O)[C@H](CCCNC(=N)N)NC(=O)[C@@H]1CCCN1C(=O)[C@@H]1CCCN1C(=O)[C@H](Cc1c[nH]c2ccccc12)NC(=O)[C@@H]1CCCN1C(=O)[C@@H]1CCCN1C(=O)[C@H](Cc1c[nH]c2ccccc12)NC(=O)[C@@H]1CCC(=O)N1)C(=O)N1CCC[C@H]1C(=O)N1CCC[C@H]1C(=O)O` ([pGlu]WPPWPPRPPLPP-OH): the pIC50 (commonly the negative decadic logarithm of the IC50, by convention in mol/L) in assay [3] was 5.47.
pEQWPPGHH(I/L)PP: the “ACE inhibitory peptide assigned” value in assay [1] is recorded as “ACE inhibitory peptides”; in assay [1] (listed as peptide with m/z 1276), “major bioactive compounds”.
Take pEWPPWPPRPP(I/L)PP: the “ACE inhibitory peptide assigned” value in assay [1] is “bioactive peptide”.
For [pGlu]NWPRPKVPP, the “ACE inhibitory peptide assigned” value in assay [1] is “ACE inhibitory peptides”.
Turning to `CC[C@H](C)[C@H](NC(=O)[C@@H]1CCCN1C(=O)[C@@H]1CCCN1C(=O)[C@H](CCCNC(=N)N)NC(=O)[C@@H]1CCCN1C(=O)[C@@H]1CCCN1C(=O)[C@H](Cc1c[nH]c2ccccc12)NC(=O)[C@@H]1CCCN1C(=O)[C@@H]1CCCN1C(=O)[C@H](Cc1c[nH]c2ccccc12)NC(=O)[C@@H]1CCC(=O)N1)C(=O)N1CCC[C@H]1C(=O)N1CCC[C@H]1C(=O)O` ([pGlu]WPPWPPRPPIPP-OH; C-terminus assumed), in assay [3], the negative-log IC50 (pIC50) was 5.46.
As to `CC[C@H](C)[C@H](NC(=O)[C@@H]1CCC(=O)N1)C(=O)N[C@@H](Cc1c[nH]c2ccccc12)C(=O)N1CCC[C@H]1C(=O)N[C@@H](CCCNC(=N)N)C(=O)N1CCC[C@H]1C(=O)N[C@@H](Cc1c[nH]cn1)C(=O)N[C@H](C(=O)N1CCC[C@H]1C(=O)N1CCC[C@H]1C(=O)O)C(C)C` ([pGlu]IWPRPHVPP-OH), the pIC50 in assay [3] is 6.00.
Same read-out and setting: the same measure for `CC(C)C[C@H](NC(=O)[C@@H]1CCC(=O)N1)C(=O)N[C@@H](Cc1c[nH]c2ccccc12)C(=O)N1CCC[C@H]1C(=O)N[C@@H](CCCNC(=N)N)C(=O)N1CCC[C@H]1C(=O)N[C@@H](Cc1c[nH]cn1)C(=O)N[C@H](C(=O)N1CCC[C@H]1C(=O)N1CCC[C@H]1C(=O)O)C(C)C` ([pGlu]LWPRPHVPP-OH): 5.96.
